Measurements taken from PubChem BioAssay AID1963830 (Molecular Pharmacology Branch, DTP, NCI, 2024).

Test system: 922993-354-T-J3-PDC complex spheroid viability
Experiment: Anticancer human tumor 922993-354-T-J3-PDC patient-derived endometrial carcinoma cell line growth inhibition [POLQ]
Conditions: for IC50: curve of first compound; for viability, T/C: stronger effect = lower value
Protocol: Multicellular complex tumor spheroid response to Polymerase (POL) inhibitors (novobiocin, ART-558, RP6685) in combination with a variety of drugs and investigational agents in selected tumor cell lines
The POL inhibitors (novobiocin, ART-558, and RP6685) were evaluated both individually and in combination with standard of care and investigational anticancer small molecules within a complex spheroid model of solid tumors. . Complex spheroids include a stromal component modeled by human endothelial cells (HUVEC) and fibroblasts modeled by human mesenchymal stem cells (MSCs). The concentration ranges selected for each drug and investigational agent were based upon clinically achievable concentrations if the clinical Cmax of the agent was known.
Compounds. The drugs and investigational agents: novobiocin (NSC847541), ART-558 (NSC835418), RP-6685 (NSC848927), peposertib (NSC802822), ceralasertib (NSC780249), elimusertib (NSC800525), camonsertib (NSC841442), AZD-1390 (NSC803789), olaparib (NSC753686), talazoparib (NSC767125), rucaparib (NSC756644), sotorasib (NSC818433), MRTX-1133 (NSC836407), SN-38 (NSC673596), topotecan (NSC609699), epotoside (NSC141540), doxorubicin (NSC123127), gemcitabine (NSC613327), 5-fluorouracil (NSC19893), paclitaxel (NSC125973), vemurafenib (NSC761431), MSA-2 (NSC828583), SN-011 (NSC837082), adavosertib (NSC754352), prexasertib (NSC758257), carboplatin (NSC241240) and oxaliplatin (NSC266046), were obtained from the National Cancer Institute (NCI) Developmental Therapeutics Program Chemical Repository (21). The FDA-approved anticancer drug set is available from the Developmental Therapeutics Program at https://dtp.cancer.gov/organization/dscb/obtaining/. […] The stock solutions were prepared in dimethyl sulfoxide (DMSO, Sigma-Aldrich, St. Louis, MO, cat. D2650), except for the platinum compounds which were prepared in saline (Quality Biological, Gaithersburg, MD, cat. 114-055-101), at 800-fold the tested concentration and stored at -70 degrees C prior to their use. All drugs and investigational agents were tested over a range starting from a high concentration at or near the clinical Cmax and decreasing in half-log increments. If the clinical Cmax for an agent had not been determined, the highest concentration tested was 10 microM, except for SN-38, which was tested at a high concentration of 1 microM.
Cell Culture. All cells were maintained in an incubator at 37 degrees C and 5% CO2 with 95% humidity. The PDC lines were cultured according to standard operating procedures established by the NCI PDMR (https://pdmr.cancer.gov). Table 3 of the manuscript, lists the cell lines along with the number of the three cell types plated to form the mct-spheroids and media for tumor cell growth. After thawing, all PDC lines, except 997537-175-T-J1-PDC and 415267-285-R-J2-PDC, were cultured in Matrigel-coated flasks prepared with a working solution of 1X Ham's F-12 nutrient mix, without supplementation (Thermo Fisher Scientific, cat. 11765054), 100 U/mL penicillin-streptomycin (Thermo Fisher Scientific, cat. 15140122), and 2.5% Matrigel (Corning Inc., Corning, NY, cat. 354248) for the first three passages. The two PDC lines 997537-175-T-J1-PDC and 415267-285-R-J2-PDC were cultured on uncoated flasks. The 857933-349-R-J2-PDC line was cultured in 6C/Colon 1B media containing advanced DMEM/F-12 (Thermo Fisher Scientific, cat. 12634028), 10 mM HEPES (Thermo Fisher Scientific, cat. 15630080), 1X GlutaMAX supplement (Thermo Fisher Scientific, cat. 35050061), 0.1 mg/mL primocin (InvivoGen, San Diego, CA, cat. ant-pm-2), 10% defined fetal bovine serum, heat inactivated (HyClone Laboratories Inc., Logan, UT, cat. SH30070.03HI), 50% L-WRN conditioned media (ATCC, cat. CRL-3276), 1.25 mM N-Acetyl-L-cysteine (Sigma-Aldrich, cat. A9165), 10 mM nicotinamide (Sigma-Aldrich, cat. N0636), 1X B-27 supplement (Thermo Fisher Scientific, cat. 17504044), 1X N-2 supplement (Thermo Fisher Scientific, cat. […]

[1] = second compound 0.0316 µM, first compound 0.0316 µM
[2] = second compound 0.0316 µM, first compound 0.1 µM
[3] = second compound 0.0316 µM, first compound 0.316 µM
[4] = second compound 0.0316 µM, first compound 1 µM
[5] = second compound 0.0316 µM, first compound 3.16 µM
[6] = second compound 0.0316 µM, first compound 10 µM
[7] = second compound 0.1 µM, first compound 0.0316 µM
[8] = second compound 0.1 µM, first compound 0.1 µM
[9] = second compound 0.1 µM, first compound 0.316 µM
[10] = second compound 0.1 µM, first compound 1 µM
[11] = second compound 0.1 µM, first compound 3.16 µM
[12] = second compound 0.1 µM, first compound 10 µM
[13] = second compound 0.316 µM, first compound 0.0316 µM
[14] = second compound 0.316 µM, first compound 0.1 µM
[15] = second compound 0.316 µM, first compound 0.316 µM
[16] = second compound 0.316 µM, first compound 1 µM
[17] = second compound 0.316 µM, first compound 3.16 µM
[18] = second compound 0.316 µM, first compound 10 µM
[19] = second compound 1 µM, first compound 0.0316 µM
[20] = second compound 1 µM, first compound 0.1 µM
[21] = second compound 1 µM, first compound 0.316 µM
[22] = second compound 1 µM, first compound 1 µM
[23] = second compound 1 µM, first compound 3.16 µM
[24] = second compound 1 µM, first compound 10 µM
[25] = second compound 3.16 µM, first compound 0.0316 µM
[26] = second compound 3.16 µM, first compound 0.1 µM
[27] = second compound 3.16 µM, first compound 0.316 µM
[28] = second compound 3.16 µM, first compound 1 µM
[29] = second compound 3.16 µM, first compound 3.16 µM
[30] = second compound 3.16 µM, first compound 10 µM
[31] = second compound 10 µM, first compound 0.0316 µM
[32] = second compound 10 µM, first compound 0.1 µM
[33] = second compound 10 µM, first compound 0.316 µM
[34] = second compound 10 µM, first compound 1 µM
[35] = second compound 10 µM, first compound 3.16 µM
[36] = second compound 10 µM, first compound 10 µM
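Note: spheroids exposed to the agents for one week.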
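Throughout, for viability, T/C: 100% = DMSO vehicle control wells.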

`CC1COCCN1c1cc(C2(O)CC3CCC(C2)O3)c2cnn(-c3ccn[nH]3)c2n1` (stereo unspecified) + Cc1cccc(N(C)C(=O)C2C(O)CCN2c2nc(C)cc(C(F)(F)F)c2C#N)c1 showed an IC50 (second compound 0.0316 µM) of 439 nM, an IC50 (second compound 0.1 µM) of 457 nM and an IC50 (second compound 0.316 µM) of 580 nM. The IC50 (second compound 1 µM) was 510 nM, the IC50 (second compound 3.16 µM) was 390 nM and the IC50 (second compound 10 µM) was 166 nM. The viability, T/C [1] was 104%, the viability, T/C [2] was 77% and the viability, T/C [3] was 61.6%. The viability, T/C [4] was 33.6%, the viability, T/C [5] was 10.6% and the viability, T/C [6] was 8.67%. It also gave a viability, T/C [7] of 109%, a viability, T/C [8] of 93.7% and a viability, T/C [9] of 63.9%. The viability, T/C [10] was 23.2%, the viability, T/C [11] was 10.3% and the viability, T/C [12] was 10.8%. It also gave a viability, T/C [13] of 110%, a viability, T/C [14] of 101% and a viability, T/C [15] of 75.5%. The viability, T/C [16] was 27.5%, the viability, T/C [17] was 11.6% and the viability, T/C [18] was 10.9%. For the same molecule, the viability, T/C [19] was 97.3%, the viability, T/C [20] was 89.5% and the viability, T/C [21] was 67.9%. The viability, T/C [22] was 25.8%, the viability, T/C [23] was 9.46% and the viability, T/C [24] was 10.4%. For the same molecule, the viability, T/C [25] was 101%, the viability, T/C [26] was 89.2% and the viability, T/C [27] was 57.1%. For the same molecule, the viability, T/C [28] was 20.7%, the viability, T/C [29] was 8.74% and the viability, T/C [30] was 9.75%. The viability, T/C [31] was 101%, the viability, T/C [32] was 64.6% and the viability, T/C [33] was 32.5%. For the same molecule, the viability, T/C [34] was 10.3%, the viability, T/C [35] was 8.71% and the viability, T/C [36] was 9.69%.
For `COc1cc2cc(C(=O)CCC(=O)O)sc2cc1OC` + Cc1cccc(N(C)C(=O)C2C(O)CCN2c2nc(C)cc(C(F)(F)F)c2C#N)c1, the IC50 (second compound 0.0316 µM) was > 10000 nM, the IC50 (second compound 0.1 µM) was > 10000 nM and the IC50 (second compound 0.316 µM) was > 10000 nM. The IC50 (second compound 1 µM) was > 10000 nM, the IC50 (second compound 3.16 µM) was > 10000 nM and the IC50 (second compound 10 µM) was > 10000 nM. For the same molecule, the viability, T/C [1] was 101%, the viability, T/C [2] was 103% and the viability, T/C [3] was 101%. The viability, T/C [4] was 103%, the viability, T/C [5] was 105% and the viability, T/C [6] was 83.8%. For the same molecule, the viability, T/C [7] was 105%, the viability, T/C [8] was 105% and the viability, T/C [9] was 97%. The viability, T/C [10] was 102%, the viability, T/C [11] was 107% and the viability, T/C [12] was 90.6%. The viability, T/C [13] was 102%, the viability, T/C [14] was 105% and the viability, T/C [15] was 101%. For the same molecule, the viability, T/C [16] was 104%, the viability, T/C [17] was 108% and the viability, T/C [18] was 91.3%. For the same molecule, the viability, T/C [19] was 96.8%, the viability, T/C [20] was 106% and the viability, T/C [21] was 105%. For the same molecule, the viability, T/C [22] was 104%, the viability, T/C [23] was 102% and the viability, T/C [24] was 92.3%. The viability, T/C [25] was 102%, the viability, T/C [26] was 101% and the viability, T/C [27] was 105%. It also gave a viability, T/C [28] of 103%, a viability, T/C [29] of 110% and a viability, T/C [30] of 90.3%. It also gave a viability, T/C [31] of 104%, a viability, T/C [32] of 98% and a viability, T/C [33] of 101%. For the same molecule, the viability, T/C [34] was 99.6%, the viability, T/C [35] was 109% and the viability, T/C [36] was 93.7%.
With `Nc1ccn(C2OC(CO)C(O)C2(F)F)c(=O)n1` (stereo unspecified) + Nc1ccc(C#CCN(C(=O)Cc2ncc(C(F)(F)F)cc2C(F)(F)F)c2ccc(F)cc2)nn1 the IC50 (second compound 0.0316 µM) was < 31.6 nM, the IC50 (second compound 0.1 µM) was < 31.6 nM and the IC50 (second compound 0.316 µM) was < 31.6 nM. The IC50 (second compound 1 µM) was < 31.6 nM, the IC50 (second compound 3.16 µM) was < 31.6 nM and the IC50 (second compound 10 µM) was < 31.6 nM. It also gave a viability, T/C [1] of 25.5%, a viability, T/C [2] of 25% and a viability, T/C [3] of 20.9%. For the same molecule, the viability, T/C [4] was 22.2%, the viability, T/C [5] was 22.2% and the viability, T/C [6] was 17.2%. For the same molecule, the viability, T/C [7] was 25.9%, the viability, T/C [8] was 25.5% and the viability, T/C [9] was 18.4%. It also gave a viability, T/C [10] of 21.9%, a viability, T/C [11] of 21.3% and a viability, T/C [12] of 19.4%. The viability, T/C [13] was 24.9%, the viability, T/C [14] was 24% and the viability, T/C [15] was 22.1%. For the same molecule, the viability, T/C [16] was 20.1%, the viability, T/C [17] was 22.4% and the viability, T/C [18] was 20.5%. For the same molecule, the viability, T/C [19] was 23.1%, the viability, T/C [20] was 19.1% and the viability, T/C [21] was 22.7%. For the same molecule, the viability, T/C [22] was 21.8%, the viability, T/C [23] was 21.3% and the viability, T/C [24] was 23.3%. The viability, T/C [25] was 23.4%, the viability, T/C [26] was 18.7% and the viability, T/C [27] was 19.1%. The viability, T/C [28] was 20.4%, the viability, T/C [29] was 21.1% and the viability, T/C [30] was 20.8%. For the same molecule, the viability, T/C [31] was 23.2%, the viability, T/C [32] was 18.9% and the viability, T/C [33] was 21.9%. The viability, T/C [34] was 18.4%, the viability, T/C [35] was 20.1% and the viability, T/C [36] was 17.5%.
